Holding throughout (format): in vivo
Holding throughout (conditions): sprayed, evaluated after 13 days

Experiment [1] has as its system Amaranthus retroflexus (AMARE). Kind of experiment: Post-emergence glasshouse phytotoxicity test, AMARE. The procedure:
(§1) Seeds of Chenopodium album (CHEAL), Ipomoea hederacea (IPOHE), Amaranthus retroflexus (AMARE) and Abutilon threophrasti (ABUTH) and Stellaria media (STEME) were sown in standard sterilised soil in pots. After cultivation for 8 days under controlled conditions in a glasshouse (at 24/19° C., day/night; 16 hours light; no humidity control), the plants were sprayed at 500 I/Ha with an aqueous spray solution derived from the formulation of the technical active ingredients in a small amount of acetone and a solvent and emulsifier mixture referred to as IF50 (11.12% Emulsogen EL360 TM+44.44% N-methylpyrrolidone+44.44% Dowanol DPM glycol ether), to create a 50 g/l solution which was then diluted using 0.2% Genapol XO80 (CAS Number: 9043-30-5) as diluent to give the desired final dose of test compound. Where active ingredients were applied as mixtures, aqueous spray solutions were prepared as above, containing both active ingredients. The test plants were then grown under controlled conditions in a glasshouse (at 24/18° C., day/night; 15 hours light; 50% humidity) and watered twice daily. After 13 days, the test was evaluated visually for percentage phytotoxicity to the plants (where 100=total damage to plant; 0=no damage to plant) when compared to control untreated plants. Two to four replicates were applied for each treatment in a randomised block test design.
(§2) 22., E=X+Y−(X*Y/100), where • X=average percent phytotoxicity of herbicide A when applied at a certain rate • Y=average percent phytotoxicity using herbicide B when applied at a certain rate • E=the expected effect of the mixture of herbicides A and B as calculated from the Colby formula.

Experiment [2] has as its system Chenopodium album (CHEAL). The experiment is described as follows: Post-emergence glasshouse phytotoxicity test, CHEAL. The procedure: as §1, §2
The subject of experiment [3] is Abutilon threophrasti (ABUTH). Kind of experiment: Post-emergence glasshouse phytotoxicity test, ABUTH. The protocol:
as §1, with “Where active ingredients were applied as mixtures, aqueous spray solutions were prepared as above, containing both active ingredients. The test plants were then grown under controlled conditions in a glasshouse (at 24/18° C., day/night; 15 hours light; 50% humidity) and watered twice daily.” left out, “Two to four replicates were applied for each treatment in a randomised block test design.” left out
as §2

Experiment [4] has as its system Stellaria media (STEME). Kind of experiment: Post-emergence glasshouse phytotoxicity test, STEME. The procedure: as §1, §2
Experiment [5] concerns Ipomoea hederacea (IPOHE). Kind of experiment: Post-emergence glasshouse phytotoxicity test, IPOHE. The protocol:
as §1, §2

Experimental findings from patent publication US20240284910A1, “HERBICIDAL COMPOSITIONS” (SYNGENTA CROP PROTECTION AG, priority 2021, published 2024) are described below.

On to `CN1C[C@H](c2cccc(C(F)(F)F)c2)[C@@H](C(=O)Nc2ccccc2F)C1=O` [I-A], for which the “Observed (O) percentage phytotoxicity” value was determined as 0% in experiment [1] (rate 6.25 g/ha); 8% in experiment [1] (rate 25 g/ha); 0% in experiment [2] (rate 6.25 g/ha); 28% in experiment [2] (rate 12.5 g/ha); 10% in experiment [3] (rate 12.5 g/ha); 33% in experiment [4] (rate 6.25 g/ha). For the same compound, the “Observed (O) percentage phytotoxicity” value is reported as 58% in experiment [4] (rate 12.5 g/ha, 100=total damage, 0=no damage); 25% in experiment [5] (rate 6.25 g/ha); 38% in experiment [5] (rate 12.5 g/ha).
As to `Cc1nnc(NC(=O)c2ccc(C(F)(F)F)n3c(CS(=O)(=O)C(C)C)nnc23)o1` [II], the “Observed (O) percentage phytotoxicity” value in experiment [1] (rate 0.31 g/ha) amounted to 5%; in experiment [2] (rate 0.31 g/ha) it was 24%; in experiment [3] (rate 0.31 g/ha) it was 34%; in experiment [4] (rate 0.16 g/ha) it was 13%; in experiment [4] (rate 0.31 g/ha) it was 6%; in experiment [5] (rate 0.16 g/ha) it was 4%.
